For two molecules, IC50 results are on record in ChEMBL document CHEMBL4184208, “Theoretical research in structure characteristics of different inhibitors and differences of binding modes with CBP bromodomain” (Bioorg Med Chem, 2018).

The experiment deals with CREB-binding protein/Histone acetyltransferase p300 (Homo sapiens, UniProt Q09472+Q92793). The experiment in a line: Inhibition of human His-FLAG tagged CBP/EP300 (1082 to 1197 residues) using H4-TetraAc-biotin peptide as substrate after 90 mins by AlphaLISA method. The format is protein assay. (Alpha assays give light when donor and acceptor beads are brought close together.)

With `C[C@@H]1CC(=O)Nc2ccccc2N1`, the half-inhibitory concentration (IC50) (as a rule, the concentration needed to halve the response being measured) came to 14 µM.

Consider `C[C@@H]1CC(=O)Nc2cccc(-c3cnn(C(C)(C)C)c3)c2N1`, for which the IC50 came out at 0.47 µM.
